Experimental data taken from article PMC11502502 (Nature cancer, 2024).
“And” between values parts separate entries of the source, which are not always exact repeats. Equal values may be shown once.

Experiments:
Assay type in all cases: in vivo
[1] = test system: THP-1 (AML) xenografted mice; assay: THP-1 AML xenograft efficacy; parameters: anti-tumor efficacy in THP-1 (AML)-tumor bearing mice, individual measurements: unit not given here
[2] = test system: MV-4–11 (AML)-xenografted mice; assay: MV-4–11 AML xenograft efficacy and overall survival; parameters: anti-tumor efficacy in MV-4-11 (AML)-tumor bearing mice in combination with SoC (tumor measurement per animal): unit not given here; settings: for Overall survival of MV-4-11 (AML)-tumor bearing mice: BRD-810 50 mg/kg; for anti-tumor efficacy in MV-4-11 (AML)-tumor bearing mice in combination with SoC (tumor measurement per animal): individual animals, BRD-810 50mg/kg
[3] = test system: SNU398 (HCC) xenografts; assay: SNU398 liver cancer xenograft efficacy; settings: SNU-398 (HCC) tumor bearing mice, Regorafinib 30 mg/kg qd po, one value per animal

CC1(C)CCC(CN2CCN(c3ccc(C(=O)NS(=O)(=O)c4ccc(NCC5CCOCC5)c([N+](=O)[O-])c4)c(Oc4cnc5[nH]ccc5c4)c3)CC2)=C(c2ccc(Cl)cc2)C1 [venetoclax] was tested, and the “Antitumor efficacy, single agent” value ([1]; 100 mg kg^−1 orally, daily) was “neither the Bcl-2 inhibitor venetoclax nor cytarabine showed appreciable single-agent efficacy”, the “anti-tumor efficacy in THP-1 (AML)-tumor bearing mice, individual measurements” value ([1]; Venetoclax, day 1 post treatment start, animals #5001-#5010) was 36.27 and 38.57 and 29.6 and 32.89 and 34.28 and 28.35 and 32.76 and 34.15 and 38.81 and 36.79 and the “anti-tumor efficacy in THP-1 (AML)-tumor bearing mice, individual measurements” value ([1]; Venetoclax, day 3 post treatment start, animals #5001-#5010) was 46.08 and 62.31 and 36.23 and 49.99 and 71.57 and 33.25 and 37.51 and 51.73 and 48.97 and 53.06. For the same molecule, the “anti-tumor efficacy in THP-1 (AML)-tumor bearing mice, individual measurements” value ([1]; Venetoclax, day 6 post treatment start, animals #5001-#5010) was 58.2 and 76.5 and 34.06 and 66.44 and 87.06 and 33.28 and 39.03 and 72.1 and 63 and 57.59, the “anti-tumor efficacy in THP-1 (AML)-tumor bearing mice, individual measurements” value ([1]; Venetoclax, day 8 post treatment start, animals #5001-#5010) was 70.38 and 85.8 and 36.3 and 78.87 and 103.9 and 36.38 and 41.14 and 85.31 and 91.47 and 80.8 and the “anti-tumor efficacy in THP-1 (AML)-tumor bearing mice, individual measurements” value ([1]; Venetoclax, day 10 post treatment start, animals #5001-#5010) was 100.62 and 113 and 44.66 and 100.81 and 143.73 and 36.12 and 44.28 and 122.17 and 124.4 and 110.66. For the same molecule, the “anti-tumor efficacy in THP-1 (AML)-tumor bearing mice, individual measurements” value ([1]; Venetoclax, day 13 post treatment start, animals #5001-#5010) was 129.99 and 188.46 and 53.9 and 147.24 and 211.83 and 41.12 and 60.34 and 168.23 and 177.94 and 148.93, the “Overall survival of MV-4-11 (AML)-tumor bearing mice” value (“Overall survival” for short) ([2]; day 0 post treatment start) was 100 and the “Overall survival” value ([2]; day 1 post treatment start) was 100. The “anti-tumor efficacy in MV-4-11 (AML)-tumor bearing mice in combination with SoC (tumor measurement per animal)” value ([2]; day 1 post treatment start) was 33.13 and 28.19 and 34.15 and 35.82 and 29.42 and 37.09 and 44.34 and 37.28 and 33.74 and 41.97, the “Overall survival” value ([2]; day 4 post treatment start) was 100 and the “anti-tumor efficacy in MV-4-11 (AML)-tumor bearing mice in combination with SoC (tumor measurement per animal)” value ([2]; day 4 post treatment start) was 32.39 and 37.39 and 43.94 and 50.14 and 32.53 and 44.14 and 52.92 and 48.8 and 41.66 and 49.99. The “Overall survival” value ([2]; day 8 post treatment start) was 100, the “anti-tumor efficacy in MV-4-11 (AML)-tumor bearing mice in combination with SoC (tumor measurement per animal)” value ([2]; day 8 post treatment start) was 41.04 and 57.44 and 59.24 and 62.99 and 49.55 and 52.42 and 59.83 and 53.52 and 48.45 and 66.98 and the “Overall survival” value ([2]; day 11 post treatment start) was 100. The “anti-tumor efficacy in MV-4-11 (AML)-tumor bearing mice in combination with SoC (tumor measurement per animal)” value ([2]; day 11 post treatment start) was 47.19 and 72.26 and 75.92 and 72.38 and 72.25 and 70.02 and 85.2 and 60.52 and 70.23 and 97.04, the “Overall survival” value ([2]; day 15 post treatment start) was 100 and the “anti-tumor efficacy in MV-4-11 (AML)-tumor bearing mice in combination with SoC (tumor measurement per animal)” value ([2]; day 15 post treatment start) was 63.44 and 101.62 and 98.93 and 111.48 and 113.46 and 108.85 and 111.46 and 76.94 and 80.71 and 124.01. For the same molecule, the “Overall survival” value ([2]; day 16 post treatment start) was 100, the “anti-tumor efficacy in MV-4-11 (AML)-tumor bearing mice in combination with SoC (tumor measurement per animal)” value ([2]; day 16 post treatment start) was 66 and 108.03 and 100.41 and 123.76 and 112.88 and 118.57 and 116.35 and 89.12 and 87.16 and 125.05 and the “Overall survival” value ([2]; day 17 post treatment start) was 0. The “anti-tumor efficacy in MV-4-11 (AML)-tumor bearing mice in combination with SoC (tumor measurement per animal)” value ([2]; day 17 post treatment start) was 74.19 and 130.91 and 105.55 and 136.78 and 132.34 and 126.42 and 134.13 and 95.37 and 110.48 and 139.48, the “Overall survival” value ([2]; day 19 post treatment start) was 0 and the “Overall survival” value ([2]; day 22 post treatment start) was 0. For the same molecule, the “Overall survival” value ([2]; day 23 post treatment start) was 0, the “Overall survival” value ([2]; day 24 post treatment start) was 0 and the “Overall survival” value ([2]; day 25 post treatment start) was 0. The “Overall survival” value ([2]; day 28 post treatment start) was 0, the “Overall survival” value ([2]; day 30 post treatment start) was 0 and the “Overall survival” value ([2]; day 32 post treatment start) was 0. For the same molecule, the “Overall survival” value ([2]; day 34 post treatment start) was 0, the “Overall survival” value ([2]; day 37 post treatment start) was 0 and the “Overall survival” value ([2]; day 39 post treatment start) was 0. The “Overall survival” value ([2]; day 41 post treatment start) was 0, the “Overall survival” value ([2]; day 44 post treatment start) was 0 and the “Overall survival” value ([2]; day 46 post treatment start) was 0. For the same molecule, the “Overall survival” value ([2]; day 48 post treatment start) was 0, the “Overall survival” value ([2]; day 51 post treatment start) was 0 and the “Overall survival” value ([2]; day 53 post treatment start) was 0.

Nc1ccn([C@@H]2O[C@H](CO)[C@@H](O)[C@@H]2O)c(=O)n1 [cytarabine] was tested, and the “Antitumor efficacy, single agent” value ([1]; 45 mg kg^−1 subcutaneous, 3 days on, 4 days off) was “neither the Bcl-2 inhibitor venetoclax nor cytarabine showed appreciable single-agent efficacy”, the “anti-tumor efficacy in THP-1 (AML)-tumor bearing mice, individual measurements” value ([1]; Cytarabine, day 1 post treatment start, animals #3001-#3010) was 34.55 and 34.13 and 35.27 and 36.61 and 37.97 and 29.56 and 32.2 and 26.85 and 39.7 and 33.08 and the “anti-tumor efficacy in THP-1 (AML)-tumor bearing mice, individual measurements” value ([1]; Cytarabine, day 3 post treatment start, animals #3001-#3010) was 56.73 and 43.71 and 46.59 and 40.5 and 59.56 and 37.55 and 48.92 and 32.47 and 41.3 and 50.46. For the same molecule, the “anti-tumor efficacy in THP-1 (AML)-tumor bearing mice, individual measurements” value ([1]; Cytarabine, day 6 post treatment start, animals #3001-#3010) was 60.86 and 46.12 and 47.28 and 41.77 and 70.74 and 42.28 and 63.75 and 27.68 and 36.96 and 52.92, the “anti-tumor efficacy in THP-1 (AML)-tumor bearing mice, individual measurements” value ([1]; Cytarabine, day 8 post treatment start, animals #3001-#3010) was 80.75 and 48.31 and 57.33 and 37.06 and 69.84 and 40.98 and 72.57 and 28.68 and 37.62 and 62.2 and the “anti-tumor efficacy in THP-1 (AML)-tumor bearing mice, individual measurements” value ([1]; Cytarabine, day 10 post treatment start, animals #3001-#3010) was 87.52 and 55.21 and 72.45 and 39.84 and 85.66 and 45.49 and 94.07 and 29.37 and 34.83 and 74.1. The “anti-tumor efficacy in THP-1 (AML)-tumor bearing mice, individual measurements” value ([1]; Cytarabine, day 13 post treatment start, animals #3001-#3010) was 101.88 and 64.15 and 91.89 and 43.02 and 99.25 and 47.84 and 115.35 and 31.51 and 35.25 and 76.99.

With Nc1ncn([C@@H]2O[C@H](CO)[C@@H](O)[C@H]2O)c(=O)n1 [Azacytidine] the “Overall survival” value ([2]; day 0 post treatment start) was 100, the “Overall survival” value ([2]; day 1 post treatment start) was 100 and the “anti-tumor efficacy in MV-4-11 (AML)-tumor bearing mice in combination with SoC (tumor measurement per animal)” value ([2]; day 1 post treatment start) was 37.66 and 36.25 and 41.68 and 30.5 and 27.18 and 34.36 and 33.31 and 32.32 and 36.01 and 43.7. The “Overall survival” value ([2]; day 4 post treatment start) was 100, the “anti-tumor efficacy in MV-4-11 (AML)-tumor bearing mice in combination with SoC (tumor measurement per animal)” value ([2]; day 4 post treatment start) was 54.55 and 56.25 and 56.22 and 40.13 and 37.55 and 44.2 and 45.16 and 42.15 and 44.53 and 58.86 and the “Overall survival” value ([2]; day 8 post treatment start) was 100. For the same molecule, the “anti-tumor efficacy in MV-4-11 (AML)-tumor bearing mice in combination with SoC (tumor measurement per animal)” value ([2]; day 8 post treatment start) was 65.52 and 65.46 and 68.31 and 53.62 and 40.92 and 60.68 and 62.4 and 50.31 and 59.65 and 77.78, the “Overall survival” value ([2]; day 11 post treatment start) was 100 and the “anti-tumor efficacy in MV-4-11 (AML)-tumor bearing mice in combination with SoC (tumor measurement per animal)” value ([2]; day 11 post treatment start) was 89.02 and 75.69 and 101.46 and 67.13 and 49.48 and 79.37 and 79.77 and 55.4 and 81.03 and 99.97. The “Overall survival” value ([2]; day 15 post treatment start) was 100, the “anti-tumor efficacy in MV-4-11 (AML)-tumor bearing mice in combination with SoC (tumor measurement per animal)” value ([2]; day 15 post treatment start) was 108.19 and 101.3 and 133.05 and 77.44 and 61.88 and 97.99 and 123.49 and 81.45 and 115.12 and 117.74 and the “Overall survival” value ([2]; day 16 post treatment start) was 100. For the same molecule, the “anti-tumor efficacy in MV-4-11 (AML)-tumor bearing mice in combination with SoC (tumor measurement per animal)” value ([2]; day 16 post treatment start) was 125.36 and 108.14 and 139.95 and 80.65 and 62.33 and 102.82 and 127.03 and 91.37 and 119.07 and 128.51, the “Overall survival” value ([2]; day 17 post treatment start) was 100 and the “anti-tumor efficacy in MV-4-11 (AML)-tumor bearing mice in combination with SoC (tumor measurement per animal)” value ([2]; day 17 post treatment start) was 137.71 and 107.49 and 162.36 and 100.14 and 70.25 and 118.23 and 133.41 and 87.57 and 140.74 and 152.32. For the same molecule, the “Overall survival” value ([2]; day 19 post treatment start) was 0, the “Overall survival” value ([2]; day 22 post treatment start) was 0 and the “Overall survival” value ([2]; day 23 post treatment start) was 0. For the same molecule, the “Overall survival” value ([2]; day 24 post treatment start) was 0, the “Overall survival” value ([2]; day 25 post treatment start) was 0 and the “Overall survival” value ([2]; day 28 post treatment start) was 0. The “Overall survival” value ([2]; day 30 post treatment start) was 0, the “Overall survival” value ([2]; day 32 post treatment start) was 0 and the “Overall survival” value ([2]; day 34 post treatment start) was 0. For the same molecule, the “Overall survival” value ([2]; day 37 post treatment start) was 0, the “Overall survival” value ([2]; day 39 post treatment start) was 0 and the “Overall survival” value ([2]; day 41 post treatment start) was 0. For the same molecule, the “Overall survival” value ([2]; day 44 post treatment start) was 0, the “Overall survival” value ([2]; day 46 post treatment start) was 0 and the “Overall survival” value ([2]; day 48 post treatment start) was 0. For the same molecule, the “Overall survival” value ([2]; day 51 post treatment start) was 0 and the “Overall survival” value ([2]; day 53 post treatment start) was 0.

CNC(=O)c1cc(Oc2ccc(NC(=O)Nc3ccc(Cl)c(C(F)(F)F)c3)c(F)c2)ccn1 [Regorafinib] was tested, and the “anti-tumor efficacy, individual measurements” value ([3]; day 1 post treatment start) was 63.45 and 60.8 and 64.88 and 117.14 and 74.08 and 111.9 and 95.85, the “anti-tumor efficacy, individual measurements” value ([3]; day 3 post treatment start) was 72 and 76.25 and 72.91 and 127.45 and 81.33 and 119.22 and 106.01 and the “anti-tumor efficacy, individual measurements” value ([3]; day 7 post treatment start) was 83.42 and 75.99 and 78.47 and 145.78 and 87.63 and 117.37. For the same molecule, the “anti-tumor efficacy, individual measurements” value ([3]; day 8 post treatment start) was 100.66 and 81.04 and 87.14 and 150.75 and 99.27 and 129.84, the “anti-tumor efficacy, individual measurements” value ([3]; day 10 post treatment start) was 89.75 and 86.89 and 87.88 and 152.45 and 93.82 and 132.88 and the “anti-tumor efficacy, individual measurements” value ([3]; day 13 post treatment start) was 96.32 and 85.08 and 98.92 and 145.11 and 103.54 and 167.23.
